These results are taken from patent publication US12643859B2, “Pyridyl oxycarboxylic acid oxime derivative and preparation method therefor, weeding composition and application thereof” (Qingdao Kingagroot Chemical Compound Co., Ltd., priority 2018, dated 2026).

The assay concerns Monocotyledonous and dicotyledonous weed seeds and main crop seeds. In words: Post-emergence test experiment (Table 3, 1000 g a.i./ha). The class given is in vivo. To be noted: 3 weeks in greenhouse, fresh weight inhibition. The procedure: The above described growth inhibition rate is fresh weight inhibition rate.
Post-emergence test experiment: Monocotyledonous and dicotyledonous weed seeds and main crop seeds (i. e. wheat, corn, rice, soybean, cotton, oilseed, millet and sorghum.) were put into a plastic pot loaded with soil. Then covered with 0.5-2 cm soil, the seeds were allowed to grow in good greenhouse environment. The test plants were treated at 2-3 leaf stage 2 weeks after sowing. The test compounds of the invention were dissolved with acetone respectively, then added with tween-80, and using 1.5 liters per hectare of an emulsible concentrate of methyl oleate as a synergist, and diluted by certain amount of water to certain concentration. The solution was sprayed to the plants with a sprayer. Then the plants were cultured for 3 weeks in the greenhouse, and the experiment result of weed controlling effect was listed in tables 3-4.

Turning to `CC(CCCl)=NOC(=O)C(C)Oc1nc(C)c(C)c(N)c1C` (stereo not shown) [Compound 19], the “Activity level (growth inhibition rate) Digitaria sanguinalis” value is listed as 5 (Level 5: the growth inhibition rate is greater than 85%), the “Activity level (growth inhibition rate) Echinochloa crusgalli” value was 5 (Level 5: the growth inhibition rate is greater than 85%), the “Activity level (growth inhibition rate) Galium spurium” value is given as 5 (Level 5: the growth inhibition rate is greater than 85%) and the “Activity level (growth inhibition rate) Leptochloa chinensis” value is 5 (Level 5: the growth inhibition rate is greater than 85%). Moreover, the “Activity level (growth inhibition rate) Monochoria Vaginalis” value is reported as 5 (Level 5: the growth inhibition rate is greater than 85%), the “Activity level (growth inhibition rate) Murdannia triquetra” value was 5 (Level 5: the growth inhibition rate is greater than 85%) and the “Activity level (growth inhibition rate) Setaria viridis” value is given as 5 (Level 5: the growth inhibition rate is greater than 85%).

With `CCCC(C)=NOC(=O)C(Oc1nc(F)c(Cl)c(N)c1Cl)C1CC1` (stereo not shown) [Compound 28], the “Activity level (growth inhibition rate) Galium spurium” value is on record as 5 (Level 5: the growth inhibition rate is greater than 85%), the “Activity level (growth inhibition rate) Monochoria Vaginalis” value is given as 5 (Level 5: the growth inhibition rate is greater than 85%) and the “Activity level (growth inhibition rate) Murdannia triquetra” value is recorded as 5 (Level 5: the growth inhibition rate is greater than 85%).

In the case of `CC(=NOC(=O)C(C)Oc1nc(F)c(Cl)c(N)c1Cl)c1ccc([N+](=O)[O-])cc1` (stereo not shown) [Compound 71], the “Activity level (growth inhibition rate) Digitaria sanguinalis” value is reported as 5 (Level 5: the growth inhibition rate is greater than 85%), the “Activity level (growth inhibition rate) Echinochloa crusgalli” value is on record as 5 (Level 5: the growth inhibition rate is greater than 85%), the “Activity level (growth inhibition rate) Galium spurium” value is given as 5 (Level 5: the growth inhibition rate is greater than 85%) and the “Activity level (growth inhibition rate) Leptochloa chinensis” value is 5 (Level 5: the growth inhibition rate is greater than 85%). The “Activity level (growth inhibition rate) Monochoria Vaginalis” value is reported as 5 (Level 5: the growth inhibition rate is greater than 85%), the “Activity level (growth inhibition rate) Murdannia triquetra” value was 5 (Level 5: the growth inhibition rate is greater than 85%) and the “Activity level (growth inhibition rate) Setaria viridis” value is 5 (Level 5: the growth inhibition rate is greater than 85%).

Take `CC(Oc1nc(F)c(Cl)c(N)c1Cl)C(=O)ON=Cc1cccc([N+](=O)[O-])c1` (stereo not shown) [Compound 73]: the “Activity level (growth inhibition rate) Digitaria sanguinalis” value was 5 (Level 5: the growth inhibition rate is greater than 85%), the “Activity level (growth inhibition rate) Echinochloa crusgalli” value is listed as 5 (Level 5: the growth inhibition rate is greater than 85%), the “Activity level (growth inhibition rate) Galium spurium” value is listed as 5 (Level 5: the growth inhibition rate is greater than 85%) and the “Activity level (growth inhibition rate) Leptochloa chinensis” value was 5 (Level 5: the growth inhibition rate is greater than 85%). The “Activity level (growth inhibition rate) Monochoria Vaginalis” value is 5 (Level 5: the growth inhibition rate is greater than 85%), the “Activity level (growth inhibition rate) Murdannia triquetra” value is listed as 5 (Level 5: the growth inhibition rate is greater than 85%) and the “Activity level (growth inhibition rate) Setaria viridis” value is 5 (Level 5: the growth inhibition rate is greater than 85%).

With `CC(Oc1nc(F)c(Cl)c(N)c1Cl)C(=O)ON=C(c1ccccc1)c1cccc(Cl)c1` (stereo not shown) [Compound 79], the “Activity level (growth inhibition rate) Digitaria sanguinalis” value was 5 (Level 5: the growth inhibition rate is greater than 85%), the “Activity level (growth inhibition rate) Echinochloa crusgalli” value was 5 (Level 5: the growth inhibition rate is greater than 85%), the “Activity level (growth inhibition rate) Galium spurium” value is on record as 5 (Level 5: the growth inhibition rate is greater than 85%) and the “Activity level (growth inhibition rate) Leptochloa chinensis” value is listed as 5 (Level 5: the growth inhibition rate is greater than 85%). The “Activity level (growth inhibition rate) Monochoria Vaginalis” value is 5 (Level 5: the growth inhibition rate is greater than 85%), the “Activity level (growth inhibition rate) Murdannia triquetra” value is recorded as 5 (Level 5: the growth inhibition rate is greater than 85%) and the “Activity level (growth inhibition rate) Setaria viridis” value was 5 (Level 5: the growth inhibition rate is greater than 85%).

For the compound `CC(Oc1nc(F)c(Cl)c(N)c1Cl)C(=O)ON=C(c1ccccc1)c1ccc(C2CC2)cc1` (stereo not shown) [Compound 80], the “Activity level (growth inhibition rate) Digitaria sanguinalis” value was 5 (Level 5: the growth inhibition rate is greater than 85%), the “Activity level (growth inhibition rate) Echinochloa crusgalli” value was 5 (Level 5: the growth inhibition rate is greater than 85%), the “Activity level (growth inhibition rate) Galium spurium” value is reported as 5 (Level 5: the growth inhibition rate is greater than 85%) and the “Activity level (growth inhibition rate) Leptochloa chinensis” value is listed as 5 (Level 5: the growth inhibition rate is greater than 85%). Further, the “Activity level (growth inhibition rate) Monochoria Vaginalis” value is reported as 5 (Level 5: the growth inhibition rate is greater than 85%), the “Activity level (growth inhibition rate) Murdannia triquetra” value is on record as 5 (Level 5: the growth inhibition rate is greater than 85%) and the “Activity level (growth inhibition rate) Setaria viridis” value is reported as 5 (Level 5: the growth inhibition rate is greater than 85%).

As to `CC(Oc1nc(F)c(Cl)c(N)c1Cl)C(=O)ON=C(c1ccccc1)c1ccc(C(F)(F)F)cc1` (stereo not shown) [Compound 81], the “Activity level (growth inhibition rate) Digitaria sanguinalis” value was 5 (Level 5: the growth inhibition rate is greater than 85%), the “Activity level (growth inhibition rate) Echinochloa crusgalli” value is reported as 5 (Level 5: the growth inhibition rate is greater than 85%), the “Activity level (growth inhibition rate) Galium spurium” value is recorded as 5 (Level 5: the growth inhibition rate is greater than 85%) and the “Activity level (growth inhibition rate) Leptochloa chinensis” value is given as 5 (Level 5: the growth inhibition rate is greater than 85%). Moreover, the “Activity level (growth inhibition rate) Monochoria Vaginalis” value was 5 (Level 5: the growth inhibition rate is greater than 85%), the “Activity level (growth inhibition rate) Murdannia triquetra” value was 5 (Level 5: the growth inhibition rate is greater than 85%) and the “Activity level (growth inhibition rate) Setaria viridis” value was 5 (Level 5: the growth inhibition rate is greater than 85%).

As to `CC(Oc1nc(F)c(Cl)c(N)c1Cl)C(=O)ON=C(c1ccc(Cl)cc1)c1cccc(F)c1` (stereo not shown) [Compound 82], the “Activity level (growth inhibition rate) Digitaria sanguinalis” value was 5 (Level 5: the growth inhibition rate is greater than 85%), the “Activity level (growth inhibition rate) Echinochloa crusgalli” value is recorded as 5 (Level 5: the growth inhibition rate is greater than 85%), the “Activity level (growth inhibition rate) Galium spurium” value is 5 (Level 5: the growth inhibition rate is greater than 85%) and the “Activity level (growth inhibition rate) Leptochloa chinensis” value is listed as 5 (Level 5: the growth inhibition rate is greater than 85%). The “Activity level (growth inhibition rate) Monochoria Vaginalis” value was 5 (Level 5: the growth inhibition rate is greater than 85%), the “Activity level (growth inhibition rate) Murdannia triquetra” value is listed as 5 (Level 5: the growth inhibition rate is greater than 85%) and the “Activity level (growth inhibition rate) Setaria viridis” value is 5 (Level 5: the growth inhibition rate is greater than 85%).

On to `CC(Oc1nc(F)c(Cl)c(N)c1Cl)C(=O)ON=C(c1ccccc1)c1ccc(F)cc1` (stereo not shown) [Compound 83], for which the “Activity level (growth inhibition rate) Digitaria sanguinalis” value is on record as 5 (Level 5: the growth inhibition rate is greater than 85%), the “Activity level (growth inhibition rate) Echinochloa crusgalli” value is 5 (Level 5: the growth inhibition rate is greater than 85%), the “Activity level (growth inhibition rate) Galium spurium” value was 5 (Level 5: the growth inhibition rate is greater than 85%) and the “Activity level (growth inhibition rate) Leptochloa chinensis” value is reported as 5 (Level 5: the growth inhibition rate is greater than 85%). The “Activity level (growth inhibition rate) Monochoria Vaginalis” value is on record as 5 (Level 5: the growth inhibition rate is greater than 85%), the “Activity level (growth inhibition rate) Murdannia triquetra” value is reported as 5 (Level 5: the growth inhibition rate is greater than 85%) and the “Activity level (growth inhibition rate) Setaria viridis” value is recorded as 5 (Level 5: the growth inhibition rate is greater than 85%).

On to `CCc1cccc(C(Cl)=NOC(=O)C(C)Oc2nc(F)c(Cl)c(N)c2Cl)c1` (stereo not shown) [Compound 85], for which the “Activity level (growth inhibition rate) Digitaria sanguinalis” value is recorded as 5 (Level 5: the growth inhibition rate is greater than 85%), the “Activity level (growth inhibition rate) Echinochloa crusgalli” value is listed as 5 (Level 5: the growth inhibition rate is greater than 85%), the “Activity level (growth inhibition rate) Galium spurium” value was 5 (Level 5: the growth inhibition rate is greater than 85%) and the “Activity level (growth inhibition rate) Leptochloa chinensis” value is on record as 5 (Level 5: the growth inhibition rate is greater than 85%). The “Activity level (growth inhibition rate) Monochoria Vaginalis” value is listed as 5 (Level 5: the growth inhibition rate is greater than 85%), the “Activity level (growth inhibition rate) Murdannia triquetra” value is listed as 5 (Level 5: the growth inhibition rate is greater than 85%) and the “Activity level (growth inhibition rate) Setaria viridis” value was 5 (Level 5: the growth inhibition rate is greater than 85%).

For the compound `CC(Oc1nc(F)c(Cl)c(N)c1Cl)C(=O)ON=C(Br)c1ccc(C#N)cc1` (stereo not shown) [Compound 86], the “Activity level (growth inhibition rate) Digitaria sanguinalis” value is 5 (Level 5: the growth inhibition rate is greater than 85%), the “Activity level (growth inhibition rate) Echinochloa crusgalli” value was 5 (Level 5: the growth inhibition rate is greater than 85%), the “Activity level (growth inhibition rate) Galium spurium” value was 5 (Level 5: the growth inhibition rate is greater than 85%) and the “Activity level (growth inhibition rate) Leptochloa chinensis” value was 5 (Level 5: the growth inhibition rate is greater than 85%). Also, the “Activity level (growth inhibition rate) Monochoria Vaginalis” value is 5 (Level 5: the growth inhibition rate is greater than 85%), the “Activity level (growth inhibition rate) Murdannia triquetra” value is 5 (Level 5: the growth inhibition rate is greater than 85%) and the “Activity level (growth inhibition rate) Setaria viridis” value was 5 (Level 5: the growth inhibition rate is greater than 85%).
